Positions of bridges follow the written chain, without caps; N, C: chain ends. Non-standard residues stand in square brackets, D forms with d. Residues, ends and D or L forms follow the SMILES beside them. R8 = C=CCCCCCC[C@@](C)(N)C(=O)O; S5 = C=CCCC[C@](C)(N)C(=O)O
Assays:
[1] = biological target: T1, PTBP1 RRM12 (Homo sapiens, UniProt P26599); test: Competitive fluorescence polarization assay between RRM12 and RNA-2; format: binding; conditions: Fig. 2C, 5 nM FAM-RNA-2, protein at 50-70 % probe binding, FP buffer pH 8.0, 20 °C, 30 min, n.b. given for inactive peptides; for Ki: read-out: Ki, competitive FP assay between RRM12 and RNA-2
T1 construct: (P57-V265); MBP (from pMAL vector); His tag; made in house; host or cells: E. coli BL21 DE3 RIL
T1 sequence (P26599 57-265): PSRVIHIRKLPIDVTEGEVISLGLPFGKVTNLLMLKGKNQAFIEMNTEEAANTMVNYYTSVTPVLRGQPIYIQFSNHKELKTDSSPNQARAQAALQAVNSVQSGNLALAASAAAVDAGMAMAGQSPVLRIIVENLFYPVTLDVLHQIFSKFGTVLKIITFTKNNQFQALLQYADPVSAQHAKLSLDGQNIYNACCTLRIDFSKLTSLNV
Description: (§1) For the initial design we used the i, i + 4 strategy where two (S)-pentenyl alanines (S5) were introduced in positions with three other amino acids in between. We picked three different amino acid pairs to replace with the S5 amino acids based on their orientation as observed in the NMR structures (P-2, P-3 and P-4, Fig. 2B and C).[25] To prevent the staple from disturbing the interaction between the ligand and the protein we chose positions facing away from the binding site forming the pairs Ala145/Ala149, Gln148/Gln152, and Ala149/Ala153. The three peptides were synthesized on Rink amide resin and the linear peptides were treated with a Grubbs catalyst to connect the S5 residues. To avoid a mixture of E/Z-diastereomers we reduced the alkene in the linker of the staple using a solution phase hydrogenation protocol.[43] The linear equivalent P-1 was synthesized for comparison but had to be extended on the C-terminus with an arginine residue to improve its solubility. The C-terminus is away from the binding surface and this modification was therefore not expected to have an impact on the binding affinity. The peptides were tested in a competitive fluorescence polarization assay using the RRM12 construct and RNA-2 (Fig. 2C and S2 ^†). […] As the staple is expected to stabilize the α-helical conformation we used circular dichroism (CD) spectroscopy to evaluate the helicity of the peptides. […] It is possible that although P-4 was more helical than P-3, the replacement of Gln148 with the hydrophobic linker disturbed the interaction since the side chain amide potentially interacts with the RRM1 surface. […]
size exclusion chromatography (Superdex 75 16/60 or 26/60) with SEC buffer (50 mM Tris, 200 mM NaCl). Protein homogeneity was assessed by the size exclusion chromatogram and purity was checked by SDS-PAGE analysis to be >= 90%.
The gene encoding for SRSF1-RRM12 (1-195) was subcloned into pOPIN-His expression vector and expressed in E. coli BL21 (DE3). A pre-culture of transformed bacteria was made followed by expression in LB-Medium (100 µg/ml Ampicillin, 1 mM IPTG, 18 °C, 160 rpm overnight) after growing the culture at 37 °C, 160 rpm to an OD600 of 0.6. The harvested cells (5000 x g, 4 °C, 15 min) were resuspended in Buffer ASRSF1 (50 mM Na2HPO4 pH 8.0, 300 mM KCl, 50 mM L-Arg, 50 mM L-Gly, 1.5 mM MgCl2) supplemented with 1 mM PMSF followed by lysis through sonification. The protein was purified using a HisTrap HP 5 ml column (GE-Healthcare) using a gradient of Buffer BSRSF1 (50 mM Na2HPO4 pH 8.0, 300 mM KCl, 50 mM L-Arg, 50 mM L-Gly, 1.5 mM MgCl2, 500 mM Imidazole) followed by dialysis into wash buffer (50 mM Na2HPO4 pH 8.0, 300 mM KCl, 50 mM L-Arg, 50 mM L-Gly, 1.5 mM MgCl2, 40 mM Imidazole) and a second run of the affinity column. The protein containing fractions were afterwards dialyzed into wash buffer with tag-cleavage using His-tagged 3C protease. The cleaved construct was subsequently used for a third affinity column run collecting the unbound fraction which was dialyzed into storage buffer (20 mM Na2HPO4 pH 8.0, 150 mM KCl, 50 mM L-Arg, 50 mM L-Gly, 1.5 mM MgCl2, 0.2 mM EDTA, 1 mM TCEP).
Purification of hnRNP A2/B1
The MBP-tagged hnRNP A2/B1 construct (1-251) was expressed from a pOPIN-His-MBP vector in E. coli BL21 (DE3) RIPL cells. A pre-culture in TB (0.01% lactose, 2mM MgSO4, 100 µg/ml ampicillin, 50 µg/ml chloramphenicol) was used to inoculate the expression culture with a starting OD600 of 0.05 at 37 °C. Expression was autoinduced at 37 °C for 4 h followed by expression over night at 25 °C. Harvested cells (5000 x g, 15 min, 4 °C) were resuspended in Buffer AhnRNPA2/B1 (50 mM HEPES pH 8.0, 300 mM NACl, 20 mM Imidazole, 1 mM TCEP) supplemented with 1 mM PMSF) and lysed with a microfluidizer.
Immobilized metal affinity chromatography was performed using a HisTrap FF crude 5 ml column. The loaded protein was washed with wash buffer (50 mM HEPES pH 8.0, 300 mM NaCl, 30 mM Imidazole, […]

[2] = Helicity by circular dichroism spectroscopy; format: physicochemical; conditions: 50 µM peptide, 20 mM sodium phosphate pH 8.0, 10 mM NaF, 20 °C, triplicates, JASCO multivariate secondary structure analysis
Description: as §1
performed in FP bufferPTBP1. […]
serially diluted in the same buffer. […]
a final concentration of 10 nM probe. […]
the settings mentioned previously.
Fluorescence polarization assay with SRSF1
Fluorescence polarization was
Fluorescence polarization assay with hnRNPA2/B1
For the competitive assay 10 nM
Microscale thermophoresis […]
afterwards serially diluted into FP buffer.
The data was evaluated at […]
experiments were performed in duplicates.
Circular Dichroism Spectroscopy […]

## CC(=O)N[C@@H](CC(N)=O)C(=O)N[C@@H](CCC(N)=O)C(=O)N[C@@H](C)C(=O)N[C@@H](CCCNC(=N)N)C(=O)N[C@@H](C)C(=O)N[C@@H](CCC(N)=O)C(=O)N[C@@]1(C)CCCCCCCC[C@@](C)(C(=O)N[C@H](C(=O)N[C@@H](CC(N)=O)C(N)=O)C(C)C)NC(=O)[C@H](CCC(N)=O)NC(=O)[C@H](CC(C)C)NC(=O)[C@H](C)NC1=O [Peptide P-3]
[1]
  Ki: 156 µM
[2]
  Helicity by CD spectroscopy: 57.8%

## CC(=O)N[C@@H](CC(N)=O)C(=O)N[C@@H](CCC(N)=O)C(=O)N[C@@H](C)C(=O)N[C@@H](CCCNC(=N)N)C(=O)N[C@@H](C)C(=O)N[C@@]1(C)CCCCCCCC[C@@](C)(C(=O)N[C@@H](C)C(=O)N[C@H](C(=O)N[C@@H](CC(N)=O)C(N)=O)C(C)C)NC(=O)[C@H](CC(C)C)NC(=O)[C@H](C)NC(=O)[C@H](C)NC1=O [Peptide P-4]
[1]
  Ki: 275 µM
[2]
  Helicity by CD spectroscopy: 77.3%

## CC(=O)N[C@@H](CC(N)=O)C(=O)N[C@@H](CCC(N)=O)C(=O)N[C@@]1(C)CCCC=CCCCCCC[C@](C)(C(=O)N[C@@H](C)C(=O)N[C@H](C(=O)N[C@@H](CC(N)=O)C(N)=O)C(C)C)NC(=O)[C@H](CC(C)C)NC(=O)[C@H](C)NC(=O)[C@H](C)NC(=O)[C@H](CCC(N)=O)NC(=O)[C@H](C)NC(=O)[C@H](CCCNC(=N)N)NC1=O [Peptide P-5] (Ac-NQ[S5]RAQAAL[R8]AVN-NH2; staple 3-10)
[1]
  Ki: 24.9 µM

## CC(=O)N[C@@H](CC(N)=O)C(=O)N[C@@H](CCC(N)=O)C(=O)N[C@@]1(C)CCCC=CCCCC2(CCCC=CCCC[C@](C)(C(=O)N[C@H](C(=O)N[C@@H](CC(=O)O)C(N)=O)C(C)C)NC(=O)[C@H](CCC(N)=O)NC(=O)[C@H](CC(C)C)NC(=O)[C@H](C)NC2=O)NC(=O)[C@H](CCC(N)=O)NC(=O)[C@H](C)NC(=O)[C@H](CCCNC(=N)N)NC1=O (stereo partly drawn) [Peptide P-7]
[1]
  Ki, competitive FP assay between RRM12 and RNA-2: n.b.

## CC(=O)N[C@@H](CC(N)=O)C(=O)N[C@@H](CCC(N)=O)C(=O)N[C@@]1(C)CCCC=CCCCC2(CCCC=CCCC[C@](C)(C(=O)N[C@H](C(=O)N[C@@H](CC(N)=O)C(N)=O)C(C)C)NC(=O)[C@H](CCC(N)=O)NC(=O)[C@H](CC(C)C)NC(=O)[C@H](C)NC2=O)NC(=O)[C@H](CCC(N)=O)NC(=O)[C@H](C)NC(=O)[C@H](CCNC(=N)N)NC1=O (stereo partly drawn) [Peptide P-8]
[1]
  Ki, competitive FP assay between RRM12 and RNA-2: n.b.

## CC(=O)N[C@@H](CC(N)=O)C(=O)N[C@@H](CCC(N)=O)C(=O)N[C@@]1(C)CCCC=CCCCC2(CCCC=CCCC[C@](C)(C(=O)N[C@H](C(=O)N[C@@H](CC(N)=O)C(N)=O)C(C)C)NC(=O)[C@H](CCC(N)=O)NC(=O)[C@H](CC(N)=O)NC(=O)[C@H](C)NC2=O)NC(=O)[C@H](CCC(N)=O)NC(=O)[C@H](C)NC(=O)[C@H](CCCNC(=N)N)NC1=O (stereo partly drawn) [Peptide P-9]
[1]
  Ki, competitive FP assay between RRM12 and RNA-2: n.b.

## CC(=O)N[C@H](C(=O)N[C@@H](CCC(N)=O)C(=O)N[C@@]1(C)CCCC=CCCCC2(CCCC=CCCC[C@](C)(C(=O)N[C@H](C(=O)N[C@@H](CC(N)=O)C(N)=O)C(C)C)NC(=O)[C@H](CCC(N)=O)NC(=O)[C@H](CC(C)C)NC(=O)[C@H](C)NC2=O)NC(=O)[C@H](CCC(N)=O)NC(=O)[C@H](C)NC(=O)[C@H](CCCNC(=N)N)NC1=O)C(C)C (stereo partly drawn) [Peptide P-10]
[1]
  Ki: 22.4 ± 4.5 µM
